Drawing on patent US10227324B2 (Shanghai Haiyan Pharmaceutical Technology Co., Ltd., priority 2014, dated 2019), this text covers IC50 for three molecules.

This test concerns NIH3T3 cells. As to the kind of experiment: Cytotoxicity by MTT assay, NIH3T3. The class given is cell-based. The settings on record: Mus musculus, NIH3T3, 72 h, cytotoxicity class, read-out: NIH3T3 cell (IC50/nM). On the technique in general: Formazan colour is commonly taken as a measure of viable cells.
Consider `CS(=O)(=O)C1(c2cc(-c3cnc(N)cc3C(F)(F)F)nc(N3CCOCC3)n2)CCCC1` [Compound S-10], for which the IC50 lay in the range of 1000 to 3000 nM.

For the molecule `CC(C)S(=O)(=O)C1(c2cc(-c3cnc(N)cc3C(F)(F)F)nc(N3CCOCC3)n2)CCC1` [Compound S-19], the IC50 was in the range of 1000 to 3000 nM.

Take `Nc1cc(C(F)(F)F)c(-c2cc(C3(S(=O)(=O)c4ccccc4)CCC3)nc(N3CCOCC3)n2)cn1` [Compound S-20]: the IC50 was 1000 to 3000 nM.
